From patent publication US20230348561A1, “DOMINANT NEGATIVE TGFBETA RECEPTOR POLYPEPTIDES, CD8 POLYPEPTIDES, CELLS, COMPOSITIONS, AND METHODS OF USING THEREOF” (IMMATICS US, INC., priority 2022, published 2023)

What was measured:
[1] = tested on: effector T cells; assay: CellTrace proliferation assay of effector T cells co-cultured with UACC257; format: cell-based, human; settings: TCR-only effector cells, E:T 5:1; TGF-β1 2-128 ng/mL; GAL 5 μM; 3 days
Procedure: Transduced cells from one donor (prepared as in Example 17) were thawed, washed, and resuspended in TexMACS medium supplemented with 5% by volume human AB serum (“Complete TexMACS”). Benzonase nuclease was added to a concentration of 50 U/mL and the cells were incubated (rested) overnight in tissue culture-treated flasks at 37° C.
UACC257 tumor cells were harvested using 0.05% trypsin, washed, and counted. Red fluorescent protein (RFP)-labeled tumor cells were plated at 5,000 tumor cells per well in 100 μL in triplicate in a 96-well plate in Complete TexMACS. Plates were placed in an incubator at 37° C.
On the day of co-culture, effector T cells were counted, washed, and resuspended in PBS containing a CellTrace Violet proliferation dye at 1:1000 dilution (1 μL dye per mL PBS) and incubated for 20 minutes at 37° C. […]
Labeled effector T cells were then washed, counted, and resuspended in Complete TexMACS and added in 1 mL per well to previously prepared tumor targets for a total of 2 mL per well at an effector:target (E:T) ratio of 5:1. […]
UACC257 tumor cells were harvested using 0.05% trypsin, washed, and counted. […]
On the day of co-culture, cells from two donors prepared and sorted as in Example 19 were counted, washed, and resuspended in PBS containing a CellTrace Violet proliferation dye at 1:1000 dilution (1 μL dye per mL PBS) and incubated for 20 minutes at 37° C. […]

[2] = tested on: UACC257-RFP tumor cells; assay: Tumor death assays with TGF-β1/galunisertib and serial tumor challenges (IncuCyte); format: cell-based; settings: TCR-only effector cells, E:T 5:1; TGF-β1 8 or 128 ng/mL; GAL 5 μM
Procedure: Cells prepared as in Example 17 were thawed, washed, and resuspended in TexMACS medium supplemented with 5% by volume human AB serum (“Complete TexMACS”). Benzonase nuclease was added to a concentration of 50 U/mL and the cells were incubated (rested) overnight in tissue culture-treated flasks at 37° C.
UACC257 tumor cells were harvested using 0.05% trypsin, washed, and counted. Red fluorescent protein (RFP)-labeled tumor cells (“UACC257-RFP”) were plated at 5,000 to 10,000 per well in a flat-bottomed 96-well plate in 100 μL of Complete TexMACS. Plates were placed in an incubator at 37° C. UACC257 cells express high levels of the antigen PRAME (preferentially expressed antigen in melanoma).
Transduced cells (effector) and tumor cells (target) were co-cultured in 96 well tissue culture plates. Effector/target co-culture plates were placed into an IncuCyte ZOOM imager at 37° C. and 5% CO2 and imaged every 2 hours for the duration of 3 to 12 days. Data was exported from the IncuCyte ZOOM software into Microsoft Excel and GraphPad Prism for further analysis. Fold tumor growth (RFP+ cell count) was normalized to 0 hr timepoint.
TCR-only transduced cells from one donor (prepared as in Example 17) were co-cultured with UACC257 tumor cells, as described in Example 20, at an effector:target (E:T) ratio of 5:1. […]

[3] = tested on: pSMAD2/3; assay: Phospho-SMAD intracellular staining assay; format: cell-based, human; settings: 5 ng/mL TGFβ; vs non-transduced cells
Procedure: SMAD is a signal transducer in the TGFβ signaling pathway. SMAD is phosphorylated in response to binding of TGFβ to its receptor and facilitates expression of TGFβ-responsive genes.
Non-transduced cells and cells expressing dnTGFβvar1 or dnTGFβvar2 (prepared as in Example 17) were thawed and washed in TexMACS medium supplemented with 5% by volume human AB serum (“Complete TexMACS”). They were subsequently resuspended in unsupplemented TexMACS to rest under serum starvation overnight at 37° C. After overnight rest, effector cells were counted and the concentration was adjusted as necessary and 100 μL aliquots were added into a flat-bottomed 96-well tissue culture plate. To avoid stimulating SMAD phosphorylation from the manipulation of cells during counting/plating, cells were further rested about 2 hours in serum-free TexMACS at 37° C.
After 2 hours, 50 μL of a 3× solution of TGF-β1 (15 ng/mL) and/or GAL (15 μM) was added to the plated effector cells for final 1× concentrations of 5 ng/mL TGF-β1 and/or 5 μM GAL, respectively. For untreated cells, 50 μL of untreated medium was added. […]
Following permeabilization, cells were washed twice with Flow Buffer (PBS, 1% FBS, 0.1% sodium azide). […] Cytometry data files were analyzed in FlowJo. pSMAD+ percentages were reported as a proportion of all live lymphocytes. […]

Molecule	Division Index / proliferation of effector T cells [1]	tumor fold growth of UACC257-RFP cells [2]	percentage of all lymphocytes positive for pSMAD [3]
Cc1cccc(-c2nn3c(c2-c2ccnc4ccc(C(N)=O)cc24)CCC3)n1 [GAL, Galunisertib]	rescued	rescues or enhances ability of effector cells to kill tumor cells	–
TGF-β1: exogenous cytokine added to co-cultures	suppresses proliferation of effector T cells	reduced the anti-tumor cytotoxicity of the effector cells	–
dnTGFβRIIvar2: dominant negative TGFβRII variant 2, SEQ ID NO: 307, encoded by SEQ ID NO: 308; lentiviral vector SEQ ID NO: 313 (protein, Dominant Negative TGFbetaRII var2 Amino Acid Sequence) MGRGLLRGLWPLHIVLWTRIASTIPPHVQKSVNNDMIVTDNNGAVKFPQLCKFCDVRFSTCDNQKSCMSNCSITSICEKPQEVCVAVWRKNDENITLETVCHDPKLPYHDFILEDAASPKCIMKEKKKPGETFFMCSCSSDECNDNIIFSEEYNTSNPDLLLVIFQVTGISLLPPLGVAISVIIIFYCYRVNRQQKLSS	–	–	reduced phosphorylated SMAD
dnTGFβRIIvar1: dominant negative TGFβRII variant 1, SEQ ID NO: 305, encoded by SEQ ID NO: 306; lentiviral vector SEQ ID NO: 312 (protein, Dominant Negative TGFbetaRII var1 Amino Acid Sequence) MGRGLLRGLWPLHIVLWTRIASTIPPHVQKSDVEMEAQKDEIICPSCNRTAHPLRHINNDMIVTDNNGAVKFPQLCKFCDVRFSTCDNQKSCMSNCSITSICEKPQEVCVAVWRKNDENITLETVCHDPKLPYHDFILEDAASPKCIMKEKKKPGETFFMCSCSSDECNDNIIFSEEYNTSNPDLLLVIFQVTGISLLPPLGVAISVIIIFYCYRVNRQQKLSS	–	–	reduced phosphorylated SMAD
